One may read the half-life as the time in which the quantity being followed falls by half. Broadly, the bioavailability is dose-corrected exposure relative to a reference, in per cent. The term efflux ratio denotes the permeability from basolateral to apical divided by that in the opposite direction, in the common usage. One may read the Cmax as the highest concentration seen after dosing. By Papp A→B is commonly meant how fast a substance crosses the layer from the apical side. The term EC50 denotes the concentration at which the effect is half-maximal.

The source of these data is ChEMBL document CHEMBL5356999, “Discovery and characterization of novel TRPML1 agonists” (Bioorg Med Chem Lett, 2024).

Data set [1] is described as follows: Stability in dog assessed as intrinsic clearance. The settings on record: hepatocytes. The data set is classed as ADME, cell-based, Canis lupus familiaris, Hepatocyte.
The nature of data set [2]: Protein binding in mouse brain. The data set is classed as ADME, tissue-based.
Data set [3] can be described thus: Plasma protein binding in cynomolgus monkey. The data set is classed as ADME, cell-free, Macaca fascicularis.
The nature of data set [4]: Stability in cynomolgus monkey assessed as intrinsic clearance. The data set is classed as ADME, cell-based, Macaca fascicularis, Hepatocyte. The settings on record: hepatocytes.
Data set [5] in a line: Half life in mouse at 1 mg/kg, IV. The data set is classed as ADME, organism-based. The settings on record: in vivo.
Data set [6] can be described thus: Unbound brain-to-plasma concentration ratio in mouse measured after 8 hrs. The data set is classed as ADME, cell-free. The settings on record: read-out: K(p,uu,brain).
Data set [7] is described as follows: Volume of distribution at steady state in mouse at 10 mg/kg, po or 1 mg/kg, iv. The settings on record: in vivo. The data set is classed as ADME, organism-based.
Data set [8] is described as follows: Stability in mouse assessed as intrinsic clearance. The data set is classed as ADME, cell-based, Hepatocyte. The settings on record: hepatocytes.
The nature of data set [9]: Stability in human hepatocytes assessed as half life. The data set is classed as ADME, cell-based, Hepatocyte.
A short description of data set [10]: Stability in human assessed as intrinsic clearance. The data set is classed as ADME, cell-based, Hepatocyte. The settings on record: hepatocytes.
A short description of data set [11]: Stability in cynomolgus monkey hepatocytes assessed as half life. The data set is classed as ADME, cell-based, Macaca fascicularis, Hepatocyte.
Data set [12] can be described thus: Stability in mouse hepatocytes assessed as half life. The data set is classed as ADME, cell-based, Hepatocyte.
A short description of data set [13]: Bioavailability in mouse at 10 mg/kg, po or 1 mg/kg, iv. The data set is classed as ADME, organism-based. The settings on record: in vivo.
A short description of data set [14]: Plasma protein binding in mouse. The data set is classed as ADME, cell-free.
Data set [15] is described as follows: Efflux ratio of apparent permeability in MDCK-MDR1 cells. The data set is classed as ADME, cell-based, Canis lupus familiaris. The settings on record: dog.
Data set [16] can be described thus: Cmax in mouse at 10 mg/kg, po or 1 mg/kg, iv. Also noted: dose 10 mg/kg, route po. The settings on record: in vivo. The data set is classed as ADME, organism-based.
Data set [17] is described as follows: Plasma protein binding in human. The data set is classed as ADME.
A short description of data set [18]: Stability in dog assessed as half life. The settings on record: hepatocytes. The data set is classed as ADME, cell-based, Canis lupus familiaris, Hepatocyte.
The nature of data set [19]: Stability in rat assessed as intrinsic clearance. The data set is classed as ADME, cell-based, Hepatocyte. The settings on record: hepatocytes.
A short description of data set [20]: Half life in mouse at 10 mg/kg, PO. The settings on record: in vivo. The data set is classed as ADME, organism-based.
Data set [21] can be described thus: Apparent permeability across apical to basolateral side in MDCK-MDR1 cells. The data set is classed as ADME, cell-based, Canis lupus familiaris. The settings on record: dog.
Data set [22] is described as follows: Effect on TRPML1 knockout HEK293 cells. The data set is classed as functional, cell-based, Homo sapiens.
Data set [23] is described as follows: Clearance in mouse at 10 mg/kg, po or 1 mg/kg, iv. The settings on record: in vivo. The data set is classed as ADME, organism-based.
Data set [24] can be described thus: Stability in rat hepatocytes assessed as half life. The data set is classed as ADME, cell-based, Hepatocyte.
The nature of data set [25]: Plasma protein binding in rat. The data set is classed as ADME.

Take `CC(C)n1nnnc1[C@@H](c1ccccc1F)N1CCN(c2cccc(Cl)c2)CC1`: the clearance in [1] is 83.7 mL/min/kg; in data set [4], 69.1 mL/min/kg; in [8] it was 170 mL/min/kg; in [10] it was 104 mL/min/kg; in data set [19], 652 mL/min/kg. Besides, the “fu,brain” value in data set [2] amounted to 0.3%. Further, the fu in data set [3] came to 0.7%; in data set [14], 0.5%; in data set [17], 0.6%; in data set [25], 0.4%. Moreover, the half-life was 131 min in data set [5]; 16.9 min in data set [9]; 39.1 min in [11]; 48 min in data set [12]; 57 min in data set [18]; 104 min in [20]. Besides, the half-life in data set [24] worked out at 4.97 min. In data set [6], the Kp uu at 8 h was 0.77. Also, the Vdss in [7] is 9.01 L/kg. In [13], this compound had a bioavailability of 12.4%. For the same compound, the efflux ratio in data set [15] was 0.4. For the same compound, the Cmax in [16] came to 36.2 ng/mL. For the same compound, the apparent permeability from apical to basolateral (Papp A→B) in data set [21] turned out to be 9.9 ×10⁻⁶ cm/s. The same compound showed an EC50 in [22] above 48.8 µM. The compound also returned a CL in data set [23] of 103 mL/min/kg.

`CN(C)S(=O)(=O)c1ccc(S(=O)(=O)Nc2cccc(Cl)c2N2CCCCC2)cc1` showed an EC50 in data set [22] of 1 µM.

`Clc1cccc(N2CCN(C3c4ccccc4CCCCn4nnnc43)CC2)c1` (stereo not drawn) came in with an EC50 in data set [22] above 48.8 µM.

Compound `Clc1cccc(N2CCN(C3c4ccccc4/C=C\CCCn4nnnc43)CC2)c1` (stereo not drawn) returned an EC50 in data set [22] above 48.8 µM.

Take `CC(C)n1nnnc1[C@H](c1ccccc1F)N1CCN(c2cccc(Cl)c2)CC1`: the clearance in data set [1] was 103 mL/min/kg; in data set [4] it was 190 mL/min/kg; in data set [8] it was 209 mL/min/kg; in data set [10], 47.6 mL/min/kg; in data set [19] it was 332 mL/min/kg. For the same compound, the “fu,brain” value in data set [2] is recorded as 0.3%. The fu worked out at 1% in [3], 1% in [14], 0.4% in [17] and 0.8% in [25]. In addition, the half-life in data set [5] is 115 min; in data set [9], 37 min; in [11], 14.2 min; in [12], 39.1 min; in data set [18], 46.3 min; in data set [24] it was 9.78 min. Moreover, the Kp uu at 8 h in [6] turned out to be 0.55. In data set [7], this compound registered a Vdss of 9.27 L/kg. Further, the bioavailability in [13] came out at 3.45%. For the same compound, the efflux ratio in data set [15] worked out at 0.6. Further, the Cmax in data set [16] is 8.96 ng/mL. Also, the Papp A→B in data set [21] was 10.7 ×10⁻⁶ cm/s. The compound also displayed a half-maximal effective concentration (EC50) in [22] above 48.8 µM. This compound gave a CL in data set [23] of 109 mL/min/kg.

Compound `Clc1cccc(N2CCN(C3c4ccccc4CCCCCn4nnnc43)CC2)c1` (stereo not drawn) gave an EC50 in data set [22] above 48.8 µM.
